Assay results as given in publication PMC6941404, “Pigmentosins from Gibellula sp. as antibiofilm agents and a new glycosylated asperfuran from Cordyceps javanica” (Beilstein Journal of Organic Chemistry, 2019).
Converted amounts (≈) assume the structure as drawn. Read-outs that look alike come from different tables or passages of the source.

What was measured:
Cytotoxicity assay (MTT) = format: cell-based; conditions: human; HeLa cell line KB3.1; MTT, five days; NA = No activity; a = Proliferation inhibition, no altered or dead cells
Description: To evaluate the biological effects of compounds 1–6, various assays were carried out. The antimicrobial activity of the isolated compounds against Bacillus subtilis DSM10, Escherichia coli DSM498, Candida tenuis MUCL29892, and Mucor plumbeus MUCL49355 was determined as described by Kuephadungphan and co-workers. The nematicidal activity against Caenorhabditis elegans was investigated using a microtiter plate assay according to Helaly and co-workers, while the cytotoxicity was tested against murine fibroblast (L929) and human HeLa (KB3.1) cell lines according to Chepkirui and co-workers.
Biological activity screening of compounds 1–6 […]
The isolated compounds were tested for cytotoxic activity using the MTT (3 -(4,5-dimethylthiayol -2-yl)-2,5-diphenyltetrayolium bromide) method in 96 -well microtiter plates following the procedure previously described by Chepkirui et al.7 against th e cervix carcino ma cell line KB3.1 and the established mouse fibroblast cell line L929. The assay was kindly conducted by Wera Collisi, Department of Microbial Drugs, Helmholtz Centre of Infection Research, Germany. The tested cell lines were cultured in EBM -2 (Lonza) sup plemented with 10% fetal bovine serum (Gibco) under 10% CO2 at 37 °C. A 60 µL of serial dilutions from an initial stock (1 mg/mL) of the test compounds in MeOH was added to 120 µL aliquots of a cell suspension (50,000 cells/mL) in 96-well microplates.
After incubation for five days, 20 µL of MTT in phosphate buffered saline (PBS) were added to give a final concentration of 0.5 mg/mL. The plates were further incubated for two hours. The precipitate […]
of formazan crystals was centrifuged and the supernatant was then discarded. Each well was washed with 100 µL of PBS and 100 µL of isopropanol containing 0.4% hydrochloric acid were subsequently added in order to get the residual dissolved. The plates were gently shaken for 20 min before the absorbance at 590 nm was measured using an ELISA microplate reader (Victor). The concentration, at which the growth of cells was inhibited to 50% of the control (IC50), was obtained from the dose - response curves. Methanol was used as negative control while epothilone A and B wer e used as positive controls for L929 and KB3.1 cell lines, respectively. […]
After incubation at 37 °C under shaking condition, the overnight cultures were adjusted to equal the turbidity of 0.5 McFarland standard using the assay medium. The assay was carried out in 96 -well tissue cultured -treated microplates (TPP®, Germany) for S. aureus and non-treated plates (Falcon®MicroTestTM, USA) for P. aeruginosa , in which 10 μ L of each compound (0.5 mg/m L) in six replicates were mixed together with 140 μ L of bacterial suspension. Methanol and CASO medium with and without 4% glucose were used as negative controls and tetracycline (100 μg/m L) as positive control. Plates were covered with a sterile adhesive porous paper (Kisker Biotech GmbH, Steinfurt, Germany) and incubated at 37 °C for 24 h.
After incubation, ba cterial biofilms were stained with 0.1% crystal violet solution (Sigma -Aldrich) following the protocol of O’Toole .9 Then, the biofilm was subsequently quantified using a microplate reader at 550 nm. […]
aeruginosa PA14 were further evaluated for their bacteriostatic and bactericidal activit ies. The assay was performed in the Bioscreen 100 -well Honeycomb plate according to the protocol described by Yuyama et al. 13 where the MIC values were determined. […]

S. aureus DSM1104 = experiment: Bacteriostatic and bactericidal activity assay (Bioscreen growth curves, MBC on agar); format: cell-based, Staphylococcus aureus; conditions: for MIC90: read-out: Bacteriostatic activity MIC90; for Growth of S. aureus cells relative to growth control: at the lowest concentration where the biofilm formation was interrupted
Description: The assay was performed with each concentration tested in quadruplicates. The MIC was considered as the lowest concentration where the percentage of inhibition was higher than or equal to 90%. The minimum bactericidal concentration (MBC) of isolated compounds was also determined by transferring an aliquot of 2 µL from all concentrations tested onto nutrient agar (NA) plates, which were then incubated at 30 °C for 24 h. The MBC endpoint was defined as the lowest concentration of the compounds that killed microorganisms, where no visible growth of the microorganism tested was observed on the agar plates. The experimental procedures and the results are given in detail in Supporting Information File 1. […]
Bacteriostatic and bactericidal activity assay […]
aeruginosa PA14 were further evaluated for their bacteriostatic and bactericidal activit ies. The assay was performed in the Bioscreen 100 -well Honeycomb plate according to the protocol described by Yuyama et al. 13 where the MIC values were determined. The bacterial inoculum was prepared by growing S. aureus DSM1104 in Luria -Bertani broth (LB) for 24 h at 30 °C and then adjusting to 0.5 McFarland turbidity standard. The 0.5 McFarland bacterial suspension (296.25 µL) was transferred to the well containing 3.75 µL of each compound (20 mg/mL) and was subsequently two -fold diluted to give 8 concentrations ranging from 250 –1.95 µg/mL. Since compound 2 and the remaining five compounds could completely be dissolved in MeOH and dimethyl sulfoxide (DMSO), respectively, MeOH and DMSO were used as the solvent controls. The assay was performed with each concentration tested in quadruplicate. The bacterial growth was monitored on the Bioscreen -C automated growth curve analysis system (Oy Growth Curves AB Ltd, Helsinki, Finland) for 24 h with the optical density at 600 nm measured at 15 -min intervals. The MIC of each compound tested was read at 24 h of incubation and was considered as the lowest concentration where the percentage of inhibition was higher than or equal to 90%. Herein, the minimum bactericidal concentration (MBC) of isolated compounds was also determined by transferring an aliquot of 2 µL from all concentration tested onto Nutrient Agar (NA) plates which were then incubate d at 30 °C for 24 h. The MBC endpoint was defined as the lowest concentration of the compounds that kill microorganisms where no visible growth of the microorganism tested was observed on the agar plates.

B. subtilis = tested on: B. subtilis; design: method as in PMID 22889083; conditions: reported by Grove and co-workers; cited from earlier work
[1] = S. aureus, minimum bactericidal concentration, no visible growth on NA plates, 30 °C, 24 h
[2] = Staphylococcus aureus, DSM1104, 24 h

COc1cc(O)c2c(O)c3c(cc2c1-c1c(OC)cc(O)c2c(O)c4c(cc12)CC(C)OC4=O)CC(C)OC3=O (centres unmarked) [Pigmentosin A (1), pigmentosin A]
IC50 (Cytotoxicity assay (MTT)): 17 µg/mL (≈ 31.1 µM)
Cell growth (%) at 1.9 µg/ml (S. aureus DSM1104; S. aureus, 24 h): 89.5%
Cell growth (%) at 3.9 µg/ml (S. aureus DSM1104; S. aureus, 24 h): 53.2%
Cell growth (%) at 7.8 µg/ml (S. aureus DSM1104; S. aureus, 24 h): 32.8%
Cell growth (%) at 15.6 µg/ml (S. aureus DSM1104; S. aureus, 24 h): 30.3%
Cell growth (%) at 31.3 µg/ml (S. aureus DSM1104; S. aureus, 24 h): 25.4%
Cell growth (%) at 62.5 µg/ml (S. aureus DSM1104; S. aureus, 24 h): 22.6%
Cell growth (%) at 125 µg/ml (S. aureus DSM1104; S. aureus, 24 h): 23.8%
Cell growth (%) at 250 µg/ml (S. aureus DSM1104; S. aureus, 24 h): 32.5%
MBC (S. aureus DSM1104; [1]): higher than 250 µg/ml
MBC (S. aureus DSM1104; [2]): > 250 µg/mL
MIC90 (S. aureus DSM1104; [2]): > 250 µg/mL
Growth of S. aureus cells relative to growth control (S. aureus DSM1104): more than 80%
MIC against B. subtilis (B. subtilis): 20 µg/mL (≈ 36.6 µM)

COc1cc(O)c2c(O)c3c(cc2c1-c1c(OC)cc(O)c2c(O)c4c(cc12)CC(CC(C)O)OC4=O)CC(C)OC3=O (centres unmarked) [Pigmentosin B (2), pigmentosin B]
Cell growth (%) at 1.9 µg/ml (S. aureus DSM1104; S. aureus, 24 h): 100%
Cell growth (%) at 3.9 µg/ml (S. aureus DSM1104; S. aureus, 24 h): 94.4%
Cell growth (%) at 7.8 µg/ml (S. aureus DSM1104; S. aureus, 24 h): 84.9%
Cell growth (%) at 15.6 µg/ml (S. aureus DSM1104; S. aureus, 24 h): 54.3%
Cell growth (%) at 31.3 µg/ml (S. aureus DSM1104; S. aureus, 24 h): 40.9%
Cell growth (%) at 62.5 µg/ml (S. aureus DSM1104; S. aureus, 24 h): 42.8%
Cell growth (%) at 125 µg/ml (S. aureus DSM1104; S. aureus, 24 h): 29.9%
Cell growth (%) at 250 µg/ml (S. aureus DSM1104; S. aureus, 24 h): 26.8%
MBC (S. aureus DSM1104; [1]): higher than 250 µg/ml
MIC90 (S. aureus DSM1104; Staphylococcus aureus, DSM1104, S. aureus, lowest concentration with inhibition >= 90% at 24 h): > 250 µg/mL
MBC (S. aureus DSM1104; Staphylococcus aureus, DSM1104, S. aureus, minimum bactericidal concentration, no visible growth on NA plates, 30 °C, 24 h, read-out: MBC): > 250 µg/mL
Growth of S. aureus cells relative to growth control (S. aureus DSM1104): more than 80%
